{"source": "patent EP4729053A1", "about": "“SOLID DISPERSION OF P2X4 INHIBITOR, AND PREPARATION METHOD THEREFOR AND USE THEREOF” (Wuhan Createrna Science and Technology Co.,Ltd., priority 2023, dated 2024)", "key": {"[1]": {"test": "Solubilization test of compound 1 with surfactants in FaSSIF", "type": "physicochemical", "details": "for Concentration of API in vehicle: FaSSIF (pH 6.5), 37°C", "method": "50 mg of compound 1 was weighed into 5 mL of FaSSIF medium containing 5 mg of different surfactants (target concentration of API (compound 1): 10 mg/mL). The mixture was shaken at 500 rpm and 37°C. 0.5 mL each of the suspension samples was taken at 0.5 hours, 1 hour, 2 hours, and 4 hours, respectively, centrifuged at 14,000 rpm for 5 minutes, and the supernatant was diluted and analyzed by HPLC. Table 1: Solubility results of compound 1 in FaSSIF containing 10% of surfactant by weight"}, "[2]": {"test": "Pharmacokinetic study in rats, intragastric administration", "type": "in vivo", "details": "rat, plasma, po, Male SD rats, i.g., vehicle 5% Solutol", "method": "SPF-grade male SD rats weighing 160 to 320 g were divided into 2 groups, with 3 rats per group [Source: Beijing Vital River Laboratory Animal Technology Co., Ltd., Certificate No.: 1103242011040898].\nFormulation and dosing: According to the drug concentration and dosing requirements in Table 15 below, the API was accurately weighed and added to the required volume of 5% Solutol. The mixture was vortexed for 2 minutes, then sonicated for 10 minutes, and stirred for 1 hour before administration. Table 15: Formulation and dosing regimen for API pharmacokinetic study\nSPF-grade male SD rats weighing 160 to 320 g were divided into 6 groups, with 3 rats per group [Source: Beijing Vital River Laboratory Animal Technology Co., Ltd., Certificate No.: 110011210113195883 (male)].\nFormulation and dosing: 80 mg of the corresponding sample in the table below was accurately weighed, dispersed in the required volume of pure water, vortexed for 5 minutes, and administered intragastrically (i.g.). The experimental dosing was scaled proportionally based on animal body weight and dosing concentration.\nAfter administration to the SD rats in each group of Experimental Preparation 1 and Experimental Preparation 2, approximately 0.2 to 0.3 mL of blood samples were collected from the orbital venous plexus at 0.167, 0.5, 1, 2, 3, 4, 6, 8, 10, and 24 hours post-dosing, and transferred to an anticoagulant EP tube (containing 4 µL of EDTA-K2, 375 mg/mL), which was gently inverted three times, stored in an ice box (no more than 30 minutes), centrifuged at 3500 × g for 10 minutes at 4°C, and plasma supernatant was transferred to a labeled EP tube. Hemolysis was observed and recorded, followed by bioanalytical testing.\nSample pretreatment: 40 µL of sample was mixed with 160 µL of acetonitrile containing 0.1% FA and 200 ng/mL mixed internal standard to precipitate proteins. The mixture was vortexed thoroughly and centrifuged at 13,000 rpm for 10 minutes at 4°C.\n110 µL of the supernatant was transferred to another 96-well deep-well plate, followed by addition of 110 µL of a mixture of methanol and water (1:3, v:v) containing 0.1% FA. The mixture was shaken for 10 minutes and analyzed using an LC-MS/MS system. The system employed a Sciex Exion LC AD high-performance liquid chromatography system with an XBridge BEH C18 (2.1 × 50 mm, 2.5 µm) column for gradient elution and an AB Sciex Qtrap 4500 mass spectrometer for analysis. The mass spectrometer employed an electrospray ionization (ESI) source in positive ion mode to monitor Tolbutamide, with precursor ion to product ion transitions with mass-to-charge ratios (m/z) of 415.1→263.1 and 271.1→155, respectively.\nData were analyzed using WinNonlin (version 5.2.1, Pharsight, Mountain View, CA) with a non-compartmental model to obtain PK parameters (Cmax, Tmax, T1/2, AUClast, etc.). Table 15: Pharmacokinetic data of some solid dispersions"}}, "data": [{"compound": "NS(=O)(=O)c1cc(NC(=O)Cc2ccccc2Cl)cc2nn(C(F)F)cc12", "note": "[compound 1]", "values": [{"measurement": "Concentration of API in vehicle", "setting": "[1]; Cremophor EL 5 mg, 0.5 h", "value": 1574.3, "unit": "µg/mL"}, {"measurement": "Concentration of API in vehicle", "setting": "[1]; Cremophor EL 5 mg, 1 h", "value": 1604.3, "unit": "µg/mL"}, {"measurement": "Concentration of API in vehicle", "setting": "[1]; Cremophor EL 5 mg, 2 h", "value": 1538.6, "unit": "µg/mL"}, {"measurement": "Concentration of API in vehicle", "setting": "[1]; Cremophor EL 5 mg, 4 h", "value": 1508.2, "unit": "µg/mL"}, {"measurement": "Concentration of API in vehicle", "setting": "[1]; Cremophor RH40 5 mg, 0.5 h", "value": 1583.3, "unit": "µg/mL"}, {"measurement": "Concentration of API in vehicle", "setting": "[1]; Cremophor RH40 5 mg, 1 h", "value": 1604.5, "unit": "µg/mL"}, {"measurement": "Concentration of API in vehicle", "setting": "[1]; Cremophor RH40 5 mg, 2 h", "value": 1567.0, "unit": "µg/mL"}, {"measurement": "Concentration of API in vehicle", "setting": "[1]; Cremophor RH40 5 mg, 4 h", "value": 1539.4, "unit": "µg/mL"}, {"measurement": "Concentration of API in vehicle", "setting": "[1]; Poloxamer 188 5 mg, 0.5 h", "value": 115.6, "unit": "µg/mL"}, {"measurement": "Concentration of API in vehicle", "setting": "[1]; Poloxamer 188 5 mg, 1 h", "value": 123.3, "unit": "µg/mL"}, {"measurement": "Concentration of API in vehicle", "setting": "[1]; Poloxamer 188 5 mg, 2 h", "value": 104.0, "unit": "µg/mL"}, {"measurement": "Concentration of API in vehicle", "setting": "[1]; Poloxamer 188 5 mg, 4 h", "value": 93.9, "unit": "µg/mL"}, {"measurement": "Concentration of API in vehicle", "setting": "[1]; Poloxamer 407 5 mg, 0.5 h", "value": 838.4, "unit": "µg/mL"}, {"measurement": "Concentration of API in vehicle", "setting": "[1]; Poloxamer 407 5 mg, 1 h", "value": 860.7, "unit": "µg/mL"}, {"measurement": "Concentration of API in vehicle", "setting": "[1]; Poloxamer 407 5 mg, 2 h", "value": 842.0, "unit": "µg/mL"}, {"measurement": "Concentration of API in vehicle", "setting": "[1]; Poloxamer 407 5 mg, 4 h", "value": 796.7, "unit": "µg/mL"}, {"measurement": "Concentration of API in vehicle", "setting": "[1]; SLS 5 mg, 0.5 h", "value": 614.0, "unit": "µg/mL"}, {"measurement": "Concentration of API in vehicle", "setting": "[1]; SLS 5 mg, 1 h", "value": 622.0, "unit": "µg/mL"}, {"measurement": "Concentration of API in vehicle", "setting": "[1]; SLS 5 mg, 2 h", "value": 639.0, "unit": "µg/mL"}, {"measurement": "Concentration of API in vehicle", "setting": "[1]; SLS 5 mg, 4 h", "value": 652.0, "unit": "µg/mL"}, {"measurement": "Concentration of API in vehicle", "setting": "[1]; Solutol HS15 5 mg, 0.5 h", "value": 1465.9, "unit": "µg/mL"}, {"measurement": "Concentration of API in vehicle", "setting": "[1]; Solutol HS15 5 mg, 1 h", "value": 1501.6, "unit": "µg/mL"}, {"measurement": "Concentration of API in vehicle", "setting": "[1]; Solutol HS15 5 mg, 2 h", "value": 1480.7, "unit": "µg/mL"}, {"measurement": "Concentration of API in vehicle", "setting": "[1]; Solutol HS15 5 mg, 4 h", "value": 1456.3, "unit": "µg/mL"}, {"measurement": "Concentration of API in vehicle", "setting": "[1]; Tween 80 5 mg, 0.5 h", "value": 899.3, "unit": "µg/mL"}, {"measurement": "Concentration of API in vehicle", "setting": "[1]; Tween 80 5 mg, 1 h", "value": 893.1, "unit": "µg/mL"}, {"measurement": "Concentration of API in vehicle", "setting": "[1]; Tween 80 5 mg, 2 h", "value": 888.5, "unit": "µg/mL"}, {"measurement": "Concentration of API in vehicle", "setting": "[1]; Tween 80 5 mg, 4 h", "value": 886.6, "unit": "µg/mL"}, {"measurement": "Concentration of API in vehicle", "setting": "[1]; VE-TPGS 5 mg, 0.5 h", "value": 2113.7, "unit": "µg/mL"}, {"measurement": "Concentration of API in vehicle", "setting": "[1]; VE-TPGS 5 mg, 1 h", "value": 2122.7, "unit": "µg/mL"}, {"measurement": "Concentration of API in vehicle", "setting": "[1]; VE-TPGS 5 mg, 2 h", "value": 2089.3, "unit": "µg/mL"}, {"measurement": "Concentration of API in vehicle", "setting": "[1]; VE-TPGS 5 mg, 4 h", "value": 2077.5, "unit": "µg/mL"}, {"measurement": "Concentration of API in vehicle", "setting": "[1]; no surfactant, 0.5 h", "value": 33.9, "unit": "µg/mL"}, {"measurement": "Concentration of API in vehicle", "setting": "[1]; no surfactant, 1 h", "value": 22.9, "unit": "µg/mL"}, {"measurement": "Concentration of API in vehicle", "setting": "[1]; no surfactant, 2 h", "value": 15.2, "unit": "µg/mL"}, {"measurement": "Concentration of API in vehicle", "setting": "[1]; no surfactant, 4 h", "value": 14.9, "unit": "µg/mL"}, {"measurement": "solubility of compound 1", "setting": "[1]; with surfactants SLS, Cremophor EL, Cremophor RH40, VE-TPGS, Tween 80, Poloxamer 407, and Solutol HS15", "value": "significantly improved"}, {"measurement": "AUC(0-t)", "setting": "[2]; 30.00 mg/kg", "value": 10800, "unit": "ng·h/mL"}, {"measurement": "Cmax", "setting": "[2]; 30.00 mg/kg", "value": 2.76, "unit": "µg/mL"}, {"measurement": "Tmax", "setting": "[2]; 30.00 mg/kg", "value": 0.67, "unit": "h"}, {"measurement": "half-life", "setting": "[2]; 30.00 mg/kg", "value": 5.31, "unit": "h"}, {"measurement": "AUC(0-t)", "setting": "[2]; 300.00 mg/kg", "value": 14700, "unit": "ng·h/mL"}, {"measurement": "Cmax", "setting": "[2]; 300.00 mg/kg", "value": 2.36, "unit": "µg/mL"}, {"measurement": "Tmax", "setting": "[2]; 300.00 mg/kg", "value": 1, "unit": "h"}, {"measurement": "half-life", "setting": "[2]; 300.00 mg/kg", "value": 13.8, "unit": "h"}]}]}
